Assay results taken from patent US8551984B2, “Aminopyrimidines as SYK inhibitors” (Merck Sharp & Dohme Corp., priority 2009, dated 2013).

Molecular target: recombinant human SYK (GST-hSYK fusion protein) (Homo sapiens, UniProt P43405)
Assay: biochemical
Details: RHSYK Activity, Table 54A
From the text: Homogeneous Time-Resolved Fluorescence (HTRF) Assay for the Recombinant Human SYK Enzyme:

| IC50 [nM] | Compound |
| --- | --- |
| < 100 | Cc1cc(Nc2nccc(C(F)(F)F)n2)cc(-c2cnc(C3(O)CCN(S(=O)(=O)C(C)C)CC3)s2)c1 [Example 54A-1] |
| < 100 | Cc1cc(Nc2nccc(C(F)(F)F)n2)cc(-c2cnc(C3(O)CCN(S(=O)(=O)C(F)(F)F)CC3)s2)c1 [Example 54A-2] |
| < 100 | Cc1cc(Nc2nccc(C(F)(F)F)n2)cc(-c2cnc(C3(O)CCN(S(=O)(=O)c4cn(C)cn4)CC3)s2)c1 [Example 54A-3] |
| < 100 | CCC(=O)N1CCC(O)(c2ncc(-c3cc(C)cc(Nc4nccc(C(F)(F)F)n4)c3)s2)CC1 [Example 54A-4] |
| < 100 | Cc1cc(Nc2nccc(C(F)(F)F)n2)cc(-c2cnc(C3(O)CCN(C(=O)CO)CC3)s2)c1 [Example 54A-5] |
| < 100 | Cc1cc(Nc2nccc(C(F)(F)F)n2)cc(-c2cnc(C3(O)CCN(C(=O)CC#N)CC3)s2)c1 [Example 54A-6] |
| < 100 | Cc1cc(Nc2nccc(C(F)(F)F)n2)cc(-c2cnc(C3(O)CCN(C(=O)CN(C)C)CC3)s2)c1 [Example 54A-7] |
| < 100 | Cc1cc(Nc2nccc(C(F)(F)F)n2)cc(-c2cnc(C3(O)CCN(C(=O)c4cccnc4)CC3)s2)c1 [Example 54A-8] |
| < 100 | Cc1cc(Nc2nccc(C(F)(F)F)n2)cc(-c2cnc(C3(O)CCN(C(=O)c4ccccn4)CC3)s2)c1 [Example 54A-9] |
| < 100 | Cc1cc(Nc2nccc(C(F)(F)F)n2)cc(-c2cnc(C3(O)CCN(C(=O)CN4CCCC4=O)CC3)s2)c1 [Example 54A-10] |
| < 100 | Cc1cc(Nc2nccc(C(F)(F)F)n2)cc(-c2cnc(C3(O)CCN(C(=O)C4CC4)CC3)s2)c1 [Example 54A-11] |
| < 100 | Cc1cc(Nc2nccc(C(F)(F)F)n2)cc(-c2cnc(C3(O)CCN(C(=O)NC4CCCCC4)CC3)s2)c1 [Example 54A-12] |
| < 100 | Cc1cc(Nc2nccc(C(F)(F)F)n2)cc(-c2cnc(C3(O)CCN(C(=O)NC(C)C)CC3)s2)c1 [Example 54A-13] |
| < 100 | CCCNC(=O)N1CCC(O)(c2ncc(-c3cc(C)cc(Nc4nccc(C(F)(F)F)n4)c3)s2)CC1 [Example 54A-14] |
| < 100 | Cc1cc(Nc2nccc(C(F)(F)F)n2)cc(-c2cnc(C3(O)CCN(C(=O)N(C)C)CC3)s2)c1 [Example 54A-15] |
| < 100 | COc1ccnc(Nc2cc(C)cc(-c3cnc(C4(O)CCN(C(=O)NC(=O)N(C)C)CC4)s3)c2)n1 [Example 54A-17] |
| < 100 | COc1ccnc(Nc2cc(C)cc(-c3cnc(C4(O)CCN(C(N)=O)CC4)s3)c2)n1 [Example 54A-19] |
| < 100 | COc1ccnc(Nc2cc(C)cc(-c3cnc(C4(O)CCNCC4)s3)c2)n1 [Example 54A-20] |
| < 100 | Cc1cc(Nc2nccc(C(F)(F)F)n2)cc(-c2cnc(C3(O)CCN(C(=O)[C@@H](C)O)CC3)s2)c1 [Example 54A-21] |
| < 100 | Cc1cc(Nc2nccc(C(F)(F)F)n2)cc(-c2cnc(C3(O)CCN(C(=O)CCO)CC3)s2)c1 [Example 54A-22] |
| < 100 | Cc1cc(Nc2nccc(C(F)(F)F)n2)cc(-c2cnc(C3(O)CCN(C(=O)CCC#N)CC3)s2)c1 [Example 54A-23] |
| < 100 | Cc1cc(Nc2nccc(C(F)(F)F)n2)cc(-c2cnc(C3(O)CCN(C(=O)CC(N)=O)CC3)s2)c1 [Example 54A-25] |
| < 100 | Cc1cc(Nc2nccc(C(F)(F)F)n2)cc(-c2cnc(C3(O)CCN(C(=O)CC(C)O)CC3)s2)c1 (stereo not shown) [Example 54A-27] |
| < 100 | Cc1cc(Nc2nccc(C(F)(F)F)n2)cc(-c2cnc(C3(O)CCN(C(=O)c4ncc[nH]4)CC3)s2)c1 [Example 54A-28] |
| < 100 | Cc1cc(Nc2nccc(C(F)(F)F)n2)cc(-c2cnc(C3(O)CCN(C(=O)c4c[nH]cn4)CC3)s2)c1 [Example 54A-29] |

| IC50 [nM] | Compound |
| --- | --- |
| < 100 | Cc1cc(Nc2nccc(C(F)(F)F)n2)cc(-c2cnc(C3(O)CCN(C(=O)c4nc[nH]n4)CC3)s2)c1 [Example 54A-30] |
| < 100 | Cc1cc(Nc2nccc(C(F)(F)F)n2)cc(-c2cnc(C3(O)CCN(C(=O)c4c[nH]nn4)CC3)s2)c1 [Example 54A-31] |
| < 100 | Cc1cc(Nc2nccc(C(F)(F)F)n2)cc(-c2cnc(C3(O)CCN(C(=O)C4CCOC4)CC3)s2)c1 (stereo not shown) [Example 54A-32] |
| < 100 | Cc1cc(Nc2nccc(C(F)(F)F)n2)cc(-c2cnc(C3(O)CCN(C(=O)C4CC(O)C4)CC3)s2)c1 (stereo not shown) [Example 54A-33] |
| < 100 | Cc1cc(Nc2nccc(C(F)(F)F)n2)cc(-c2cnc(C3(O)CCN(C(=O)c4ccccc4)CC3)s2)c1 [Example 54A-34] |
| < 100 | Cc1cc(Nc2nccc(C(F)(F)F)n2)cc(-c2cnc(C3(O)CCN(C(=O)Cn4ccnc4)CC3)s2)c1 [Example 54A-35] |
| < 100 | Cc1cc(Nc2nccc(C(F)(F)F)n2)cc(-c2cnc(C3(O)CCN(C(=O)Cc4c[nH]cn4)CC3)s2)c1 [Example 54A-36] |
| < 100 | Cc1cc(Nc2nccc(C(F)(F)F)n2)cc(-c2cnc(C3(O)CCN(C(=O)Cn4cncn4)CC3)s2)c1 [Example 54A-37] |
| < 100 | Cc1cc(Nc2nccc(C(F)(F)F)n2)cc(-c2cnc(C3(O)CCN(C(=O)[C@@H]4CCC(=O)N4)CC3)s2)c1 [Example 54A-38] |
| < 100 | Cc1cc(Nc2nccc(C(F)(F)F)n2)cc(-c2cnc(C3(O)CCN(C(=O)C4CNC(=O)N4)CC3)s2)c1 (stereo not shown) [Example 54A-39] |
| < 100 | Cc1cc(Nc2nccc(C(F)(F)F)n2)cc(-c2cnc(C3(O)CCN(C(=O)CC4CCOC4)CC3)s2)c1 (stereo not shown) [Example 54A-40] |
| < 100 | Cc1cc(Nc2nccc(C(F)(F)F)n2)cc(-c2cnc(C3(O)CCN(C(=O)C4CCCOC4)CC3)s2)c1 (stereo not shown) [Example 54A-41] |
| < 100 | Cc1cc(Nc2nccc(C(F)(F)F)n2)cc(-c2cnc(C3(O)CCN(C(=O)CC4CCCO4)CC3)s2)c1 (stereo not shown) [Example 54A-42] |
| < 100 | CCOC(=O)CC(=O)N1CCC(O)(c2ncc(-c3cc(C)cc(Nc4nccc(C(F)(F)F)n4)c3)s2)CC1 [Example 54A-43] |
| < 100 | Cc1cc(Nc2nccc(C(F)(F)F)n2)cc(-c2cnc(C3(O)CCN(C(=O)C(C)(CO)CO)CC3)s2)c1 [Example 54A-44] |
| < 100 | Cc1cc(Nc2nccc(C(F)(F)F)n2)cc(-c2cnc(C3(O)CCN(C(=O)Cc4cccnc4)CC3)s2)c1 [Example 54A-45] |
| < 100 | Cc1cc(Nc2nccc(C(F)(F)F)n2)cc(-c2cnc(C3(O)CCN(C(=O)Cc4ccccn4)CC3)s2)c1 [Example 54A-46] |
| < 100 | Cc1cc(Nc2nccc(C(F)(F)F)n2)cc(-c2cnc(C3(O)CCN(C(=O)CS(C)(=O)=O)CC3)s2)c1 [Example 54A-47] |
| < 100 | Cc1cc(Nc2nccc(C(F)(F)F)n2)cc(-c2cnc(C3(O)CCN(C(=O)CCc4cn[nH]c4)CC3)s2)c1 [Example 54A-50] |
| < 100 | Cc1cc(Nc2nccc(C(F)(F)F)n2)cc(-c2cnc(C3(O)CCN(C(=O)CCn4cncn4)CC3)s2)c1 [Example 54A-51] |
| < 100 | Cc1cc(Nc2nccc(C(F)(F)F)n2)cc(-c2cnc(C3(O)CCN(C(=O)[C@@H]4CCCC(=O)N4)CC3)s2)c1 [Example 54A-52] |
| < 100 | Cc1cc(Nc2nccc(C(F)(F)F)n2)cc(-c2cnc(C3(O)CCN(C(=O)CC4CCOCC4)CC3)s2)c1 [Example 54A-53] |
| < 100 | COC(=O)C1(C(=O)N2CCC(O)(c3ncc(-c4cc(C)cc(Nc5nccc(C(F)(F)F)n5)c4)s3)CC2)CC1 [Example 54A-54] |
| < 100 | C#Cc1ccc(C(=O)N2CCC(O)(c3ncc(-c4cc(C)cc(Nc5nccc(C(F)(F)F)n5)c4)s3)CC2)cc1 [Example 54A-55] |

| Compound | IC50 [nM] |
| --- | --- |
| Cc1cc(Nc2nccc(C(F)(F)F)n2)cc(-c2cnc(C3(O)CCN(CC(F)(F)F)CC3)s2)c1 [Example 54A-24] | < 100 |

Same assay, conditions: rhSYK Activity, Table 33D

| IC50 [nM] | Compound |
| --- | --- |
| < 100 | Cc1cc(Nc2nccc(C(F)(F)F)n2)cc(-c2cnc(C(C)(O)c3c(C)nn(CCC(=O)O)c3C)s2)c1 (stereo not shown) [Example 33D-19] |
| < 100 | Cc1cc(Nc2nccc(C(F)(F)F)n2)cc(-c2cnc(C(C)(O)c3ccc(C(=O)O)s3)s2)c1 (stereo not shown) [Example 33D-20] |
| < 100 | Cc1cc(Nc2nccc(C(F)(F)F)n2)cc(-c2cnc(C(O)C(C)(C)N3CCC(C(=O)O)CC3)s2)c1 (stereo not shown) [Example 33D-23] |
| < 100 | Cc1cc(Nc2nccc(C(F)(F)F)n2)cc(-c2cnc(C(O)(c3ccc(/C=C/C(=O)O)cc3)C3CC3)s2)c1 (stereo not shown) [Example 33D-24] |
| < 100 | Cc1cc(Nc2nccc(C(F)(F)F)n2)cc(-c2cnc(C(O)(CCCC(=O)O)c3ccncc3)s2)c1 (stereo not shown) [Example 33D-25] |

Same assay, conditions: rhSYK Activity, Table 36A

| IC50 [nM] | Compound |
| --- | --- |
| 100 to 1000 | CCOC(=O)C1CC=C(c2ncc(-c3cccc(Nc4nccc(C(F)(F)F)n4)c3)s2)CC1 (stereo not shown) [Example 36A-1] |
| < 100 | Cc1cc(Nc2nccc(C(F)(F)F)n2)cc(-c2cnc(C3=CCC(C(=O)O)CC3)s2)c1 (stereo not shown) [Example 36A-3] |
| < 100 | Cc1cc(Nc2nccc(C(F)(F)F)n2)cc(-c2cnc(C3=CC(=O)CC3)s2)c1 [Example 36A-6] |
| < 100 | Cc1cc(Nc2nccc(C(F)(F)F)n2)cc(-c2cnc(C3=CC(=O)CCC3)s2)c1 [Example 36A-7] |
| < 100 | Cc1cc(Nc2nccc(C(F)(F)F)n2)cc(-c2cnc(C3=CC(=O)CCCC3)s2)c1 [Example 36A-9] |
| 100 to 1000 | COC(=O)C1CCC(c2ncc(-c3cc(C)cc(Nc4nccc(C(F)(F)F)n4)c3)s2)=CC1(C)C (stereo not shown) [Example 36A-11] |
| 100 to 1000 | COC(=O)C1CC=C(c2ncc(-c3cc(C)cc(Nc4nccc(C(F)(F)F)n4)c3)s2)CC1(C)C (stereo not shown) [Example 36A-13] |

Same assay, conditions: rhSYK Activity, Table 36B

| IC50 [nM] | Compound |
| --- | --- |
| < 100 | Cc1cc(Nc2nccc(C(F)(F)F)n2)cc(-c2cnc(C3CCNC(=O)C3)s2)c1 (stereo not shown) [Example 36B-1] |
| < 100 | Cc1cc(Nc2nccc(C(F)(F)F)n2)cc(-c2cnc(C3=CCNC(=O)CC3)s2)c1 [Example 36B-2] |
| < 100 | Cc1cc(Nc2nccc(C(F)(F)F)n2)cc(-c2cnc(C3CCCNC(=O)C3)s2)c1 (stereo not shown) [Example 36B-3] |
| < 100 | Cc1cc(Nc2nccc(C(F)(F)F)n2)cc(-c2cnc(C3CCNC(=O)CC3)s2)c1 (stereo not shown) [Example 36B-4] |

Same assay, conditions: rhSYK Activity, table after Example 43

| IC50 [nM] | Compound |
| --- | --- |
| < 100 | [2H]C([2H])([2H])c1cc(Nc2nccc(C(F)(F)F)n2)cc(-c2cnc([C@]3(O)CC[C@H](C(=O)O)CC3)s2)c1 [Example 43-1] |
